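Grown in 96-well plates, cells were treated for 48 hours with each compound at five concentrations. Insufficient inhibition: endpoint recorded as highest concentration tested. Abbreviation: GI50, concentration required for 50% inhibition of growth. TGI marks complete inhibition of growth.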
Tests used:
Test in all cases: growth of human tumour cells (NCI), 48 h
SNB-19 CNS = system: SNB-19 CNS
SR leukemia = system: SR leukemia
UO-31 renal = system: UO-31 renal
KM12 colon = system: KM12 colon
HL-60(TB) leukemia = system: HL-60(TB) leukemia
A549 NSCLC = system: A549 NSCLC
SK-MEL-28 melanoma = system: SK-MEL-28 melanoma
SN12C renal = system: SN12C renal
SNB-75 CNS = system: SNB-75 CNS
HT29 colon = system: HT29 colon

Structure (SMILES) | GI50 (SNB-19 CNS) [µM] | TGI (SNB-19 CNS) [µM] | GI50 (SR leukemia) [µM] | TGI (SR leukemia) [µM] | GI50 (UO-31 renal) [µM] | TGI (UO-31 renal) [µM] | GI50 (KM12 colon) [µM] | TGI (KM12 colon) [µM] | GI50 (HL-60(TB) leukemia) [µM] | TGI (HL-60(TB) leukemia) [µM] | GI50 (A549 NSCLC) [µM] | TGI (A549 NSCLC) [µM] | GI50 (SK-MEL-28 melanoma) [µM] | TGI (SK-MEL-28 melanoma) [µM] | GI50 (SN12C renal) [µM] | TGI (SN12C renal) [µM] | GI50 (SNB-75 CNS) [µM] | TGI (SNB-75 CNS) [µM] | GI50 (HT29 colon) [µM] | TGI (HT29 colon) [µM]
Cc1ccccc1NC(=O)c1cc2ccccc2cc1O | 4.6 | > 100 | 4.84 | > 100 | 3.54 | > 100 | 3.36 | > 100 | 2.5 | 7.34 | 3.48 | > 100 | 5.09 | > 100 | 2.62 | 9.18 | 2.43 | 44.9 | 7.54 | > 100
COc1ccc2c(c1)C=C1CSCC3=Cc4cc(OC)ccc4OC13O2 | 0.552 | > 100 | 0.164 | > 100 | 0.642 | > 100 | 0.513 | > 100 | 0.27 | 0.801 | 0.492 | > 100 | > 28.2 | > 100 | 0.723 | > 100 | 0.183 | 0.598 | 0.34 | > 100
CC1=NN(c2ccccc2)C(=O)C1N=Nc1ccc(S(N)(=O)=O)cc1 (stereo not given) |  | > 100 |  | > 100 |  | > 100 |  | > 100 |  | > 100 |  | > 100 |  | > 100 |  | > 100 |  | > 100 |  | > 100
CCCC(CCC)C(=O)OCC1(CO)C/C(=C\c2ccc(C(F)(F)F)cc2)C(=O)O1 (stereo not given) | 16.8 | 30.6 | 14.9 | 31.1 | 12.2 | 26.5 | 13.7 | 28.6 | 0.308 | 8.13 | 5.69 | 26.3 | 15.5 | 29.2 | 11.9 | 25.7 | 12.1 | 26.8 | 14.4 | 30.6
O=C(O)c1cc(=O)c2cc(C(=O)c3cccs3)c(Cl)c(Cl)c2o1 |  | > 100 |  | > 100 |  | > 100 |  | > 100 |  | > 100 |  | > 100 |  | > 100 |  | > 100 |  | > 100 |  | > 100
O=C(O)C1CC2CC(=O)C1C2 (stereo not given) |  | > 100 |  | > 100 |  | > 100 |  | > 100 |  | > 100 |  | > 100 |  | > 100 |  | > 100 |  | > 100 |  | > 100
CNc1ncc2cc(Oc3ccc(F)cc3F)c(=O)n(C)c2n1 | > 25 | > 25 | > 25 | > 25 | > 25 | > 25 | > 25 | > 25 | > 25 | > 25 | > 25 | > 25 | > 25 | > 25 | > 25 | > 25 | 9.33 | > 25 | > 25 | > 25
CC1=NN(C(=O)c2nn(-c3ccc(Cl)cc3)cc2O)C(=O)C1 | 3.16 | > 100 | 0.419 | 7.97 | 2.87 | > 100 | 4.52 | > 100 | 1.17 | 7.46 | 2.92 | > 100 | 9.13 | > 100 | 1.81 | > 100 | 0.532 | > 100 | 4.44 | > 100
